pIC50: −log10 of the molar value. Active and inactive are the calls of the source. The calls are words filed in the database; no cut-off is given here.
Assays:
[1] = system: ES-2; test: Antiproliferative activity against human ES2 cells assessed as cell death after 72 hrs by Alamar blue viability assay; format: functional, cell-based; conditions: ES-2, 72 h
[2] = system: HCT-116; test: Antiproliferative activity against human HCT-116 cells assessed as cell death after 72 hrs by Alamar blue viability assay; format: functional, cell-based; conditions: HCT-116, 72 h
[3] = Hemolytic activity in human RBC measured by hemolysis assay; format: toxicity, cell-based; conditions: erythrocyte
[4] = system: Staphylococcus aureus; test: Antibacterial activity against Staphylococcus aureus; format: functional
[5] = system: Escherichia coli; test: Antibacterial activity against Escherichia coli; format: functional
[6] = system: ES-2; test: Antiproliferative activity against human ES2 cells at 10 uM assessed as time to induce 50% cell death measured by Annexin V/propidium iodide staining method; format: functional
[7] = system: MIA PaCa-2; test: Antiproliferative activity against human MIA PaCa-2 cells at 10 uM assessed as time to induce 50% cell death measured by Annexin V/propidium iodide staining method; format: functional
[8] = system: HCT-116; test: Antiproliferative activity against human HCT-116 cells at 10 uM assessed as time to induce 50% cell death measured by Annexin V/propidium iodide staining method; format: functional
[9] = system: ES-2; test: Antiproliferative activity against human ES2 cells at 10 uM pretreated with 25 uM pan-caspase inhibitor Q-VD-OPh and assessed as induction of cell death measured after 13 hrs; format: functional, cell-based
[10] = system: HCT-116; test: Antiproliferative activity against human HCT-116 cells at 10 uM pretreated with 25 uM pan-caspase inhibitor Q-VD-OPh and assessed as induction of cell death measured after 13 hrs; format: functional, cell-based
[11] = system: ES-2; test: Induction of PARP-1 cleavage in human ES2 cells measured after 1 to 7 hrs; format: functional, cell-based; conditions: time 1-7 hrs
[12] = system: HCT-116; test: Induction of PARP-1 cleavage in human HCT-116 cells measured after 1 to 7 hrs; format: functional, cell-based; conditions: time 1-7 hrs
[13] = system: ES-2; test: Induction of apoptosis in human ES2 cells assessed as change in cell membrane blebbing; format: functional, cell-based
[14] = system: ES-2; test: Induction of apoptosis in human ES2 cells assessed as change in chromatin condensation; format: functional, cell-based
[15] = system: ES-2; test: Induction of ROS production in human ES2 cells at 5 to 25 uM measured by carboxy-H2DCFDA fluorescence assay; format: functional, cell-based; conditions: dose 5-25 µM
[16] = system: HCT-116; test: Induction of ROS production in human HCT-116 cells at 5 to 25 uM measured by carboxy-H2DCFDA fluorescence assay; format: functional, cell-based; conditions: dose 5-25 µM
[17] = system: ES-2; test: Induction of ROS production in human ES2 cells at 10 to 25 uM measured by MitoSox red fluorescence assay; format: functional, cell-based; conditions: dose 10-25 µM
[18] = system: ES-2; test: Induction of ROS-induced lipid peroxidation in human ES2 cells at 10 uM measured after 1 hr; format: functional, cell-based
[19] = system: HCT-116; test: Induction of ROS-induced lipid peroxidation in human HCT-116 cells at 10 uM measured after 1 hr; format: functional, cell-based
[20] = system: 4T1; test: Induction of ROS-induced lipid peroxidation in mouse 4T1 cells at 10 uM measured after 1 hr; format: functional, cell-based
[21] = system: ES-2; test: Induction of ROS-induced lipid peroxidation in human ES2 cells at 10 uM pretreated with DFO and measured after 1 hr; format: functional, cell-based
[22] = system: HCT-116; test: Induction of ROS-induced lipid peroxidation in human HCT-116 cells at 10 uM pretreated with DFO and measured after 1 hr; format: functional, cell-based
[23] = system: 4T1; test: Induction of ROS-induced lipid peroxidation in mouse 4T1 cells at 10 uM pretreated with DFO and measured after 1 hr; format: functional, cell-based
[24] = system: ES-2; test: Induction of cell death in human ES2 cells at 5 to 25 uM in presence of 250 uM trolox and measured after 14 hrs; format: functional, cell-based; conditions: dose 5-25 µM
[25] = system: ES-2; test: Induction of cell death in human ES2 cells at 5 to 25 uM in presence of 2 uM ferrostatin-1 and measured after 14 hrs; format: functional, cell-based; conditions: dose 5-25 µM
[26] = system: ES-2; test: Induction of cell death in human ES2 cells at 5 to 25 uM in presence of 100 uM DFO and measured after 14 hrs; format: functional, cell-based; conditions: dose 5-25 µM
[27] = system: HCT-116; test: Induction of cell death in human HCT-116 cells at 5 to 25 uM in presence of 250 uM trolox and measured after 10 hrs; format: functional, cell-based; conditions: dose 5-25 µM
[28] = system: HCT-116; test: Induction of cell death in human HCT-116 cells at 5 to 25 uM in presence of 2 uM ferrostatin-1 and measured after 10 hrs; format: functional, cell-based; conditions: dose 5-25 µM
[29] = system: HCT-116; test: Induction of cell death in human HCT-116 cells at 5 to 25 uM in presence of 100 uM DFO and measured after 10 hrs; format: functional, cell-based; conditions: dose 5-25 µM
[30] = system: A549; test: Induction of cell death in human A549 cells at 5 to 25 uM in presence of 250 uM trolox and measured after 12 hrs; format: functional, cell-based; conditions: dose 5-25 µM
[31] = system: A549; test: Induction of cell death in human A549 cells at 5 to 25 uM in presence of 2 uM ferrostatin-1 and measured after 12 hrs; format: functional, cell-based; conditions: dose 5-25 µM
[32] = system: A549; test: Induction of cell death in human A549 cells at 5 to 25 uM in presence of 100 uM DFO and measured after 12 hrs; format: functional, cell-based; conditions: dose 5-25 µM
[33] = system: 4T1; test: Induction of cell death in mouse 4T1 cells at 5 to 25 uM in presence of 250 uM trolox and measured after 18 hrs; format: functional, cell-based; conditions: dose 5-25 µM
[34] = system: 4T1; test: Induction of cell death in mouse 4T1 cells at 5 to 25 uM in presence of 2 uM ferrostatin-1 and measured after 18 hrs; format: functional, cell-based; conditions: dose 5-25 µM
[35] = system: 4T1; test: Induction of cell death in mouse 4T1 cells at 5 to 25 uM in presence of 100 uM DFO and measured after 18 hrs; format: functional, cell-based; conditions: dose 5-25 µM
[36] = system: HCT-116; test: Induction of cell death in human HCT-116 cells at 5 to 25 uM in presence of 5 mM NAC and measured after 10 hrs; format: functional, cell-based; conditions: dose 5-25 µM
[37] = system: A549; test: Induction of cell death in human A549 cells at 5 to 25 uM in presence of 5 mM NAC and measured after 12 hrs; format: functional, cell-based; conditions: dose 5-25 µM
[38] = molecular target: T1, Phospholipid hydroperoxide glutathione peroxidase GPX4 (Homo sapiens) (UniProt P36969); test: Inhibition of GPX4 in human ES2 cells at 10 uM measured after 1 hr by phosphotidylcholine hydroperoxide (PCOOH) LC-MS based assay relative to control; format: cell-based
T1 sequence (whole entry): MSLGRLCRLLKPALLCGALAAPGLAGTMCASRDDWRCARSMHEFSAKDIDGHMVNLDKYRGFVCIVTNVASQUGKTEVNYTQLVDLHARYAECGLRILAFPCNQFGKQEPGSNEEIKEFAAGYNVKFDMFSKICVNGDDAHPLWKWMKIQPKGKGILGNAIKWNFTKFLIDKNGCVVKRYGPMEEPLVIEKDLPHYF

[39] = molecular target: T2, Thioredoxin, mitochondrial (Homo sapiens) (UniProt Q99757); test: Inhibition of thioredoxin in human HCT-116 cells at 20 uM relative to control; format: cell-based
T2 sequence (whole entry): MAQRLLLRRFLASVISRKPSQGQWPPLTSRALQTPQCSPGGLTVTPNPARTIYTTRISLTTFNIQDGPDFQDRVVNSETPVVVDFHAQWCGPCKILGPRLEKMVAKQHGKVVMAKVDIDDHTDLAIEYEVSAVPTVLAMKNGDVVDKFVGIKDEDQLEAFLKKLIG

[40] = molecular target: T2, Thioredoxin, mitochondrial (Homo sapiens); test: Inhibition of human thioredoxin at 0.5 to 10 uM measured after 30 mins relative to control; conditions: dose 0.5-10 µM
[41] = system: MCF-10A; test: Antiproliferative activity against human MCF-10A cells after 72 hrs by Alamar blue viability assay; format: functional, cell-based
[42] = system: HFF-1; test: Antiproliferative activity against human HFF-1 cells after 72 hrs by Alamar blue viability assay; format: functional, cell-based; conditions: HFF-1, 72 h
[43] = system: 4T1; test: Antitumor activity against mouse 4T1 cells xenografted immunocompetent Balb/c mouse assessed as tumor growth inhibition at 50 mg/kg, ip administered twice a week as 5 doses; format: functional; conditions: 4T1, ip, read-out: TGI
[44] = system: 4T1; test: Antitumor activity against mouse 4T1 cells xenografted immunodeficient SCID mouse assessed as tumor growth at 50 mg/kg, ip administered twice a week as 5 doses; format: functional, organism-based
[45] = AUC in C57BL/6 mouse at 40 mg/kg, ip; format: ADME, organism-based; parameters: dose 40 mg/kg; conditions: in vivo
[46] = Half-life in C57BL/6 mouse at 40 mg/kg, ip; format: ADME, organism-based; conditions: in vivo

Compound: C=CC(=C)[C@@H]1C[C@@H](OC(=O)CCl)[C@]2(C)[C@H](C)CC[C@]3(C[C@H](O)C(=O)[C@]32O)[C@H]1C
- pIC50 [1]: 5.17

Compound: C[C@@H]1CC[C@@]23C[C@H](O)C(=O)[C@@]2(O)[C@]1(C)[C@H](OC(=O)CI)C[C@@H](C1=CCn2c(=O)n(-c4ccccc4)c(=O)n2C1)[C@@H]3C
- pIC50 [1]: 6.62
- pIC50 [2]: 6.18

Compound: C[C@@H]1CC[C@@]23C[C@H](O)C(=O)[C@@]2(O)[C@]1(C)[C@H](OC(=O)CCl)C[C@@H](C1=CCC2C(=O)N(c4ccccc4)C(=O)C2C1)[C@@H]3C (some centres not stated)
- pIC50 [1]: 5.60
- pIC50 [2]: 5.19

Compound: C#CCN1C(=O)C2CC=C([C@@H]3C[C@@H](OC(=O)CCl)[C@]4(C)[C@H](C)CC[C@]5(C[C@H](O)C(=O)[C@]54O)[C@H]3C)CC2C1=O (some centres not stated)
- pIC50 [1]: 5.40
- pIC50 [2]: 4.98

Compound: C[C@@H]1CC[C@@]23C[C@H](O)C(=O)[C@@]2(O)[C@]1(C)[C@H](OC(=O)CCl)C[C@@H](C1=CCn2c(=O)n(-c4ccccc4)c(=O)n2C1)[C@@H]3C
- pIC50 [1]: 5.80
- Activity [3]: Non-Toxic
- MIC [4]: > 64 µg/mL
- MIC [5]: > 64 µg/mL
- Time [6]: 1 h
- Time [7]: 1.5 h
- Time [8]: 7 h
- Activity [9]: Active
- Activity [10]: Active
- Activity [11]: inactive
- Activity [12]: inactive
- Activity [13]: inactive
- Activity [14]: inactive
- Activity [15]: Active
- Activity [16]: Active
- Activity [17]: Active
- Activity [18]: Active
- Activity [19]: Active
- Activity [20]: Active
- Activity [21]: inactive
- Activity [22]: inactive
- Activity [23]: inactive
- Activity [24]: inactive
- Activity [25]: inactive
- Activity [26]: inactive
- Activity [27]: inactive
- Activity [28]: inactive
- Activity [29]: inactive
- Activity [30]: inactive
- Activity [31]: inactive
- Activity [32]: inactive
- Activity [33]: inactive
- Activity [34]: inactive
- Activity [35]: inactive
- Activity [36]: inactive
- Activity [37]: inactive
- inhibition [38]: inactive
- inhibition [39]: Active
- inhibition [40]: Active
- pIC50 [41]: 5.51
- pIC50 [42]: 5.39
- inhibition in vivo at 50 mg/kg [43]: 40%
- Activity [44]: inactive
- AUC [45]: 7040 ng·h/mL
- half-life [46]: 9.96 min
- pIC50 [2]: 5.46

Compound: CC1=CC(C)=[N+]2C1=Cc1ccc(CCC(=O)NCCCn3cc(CN4C(=O)C5CC=C([C@@H]6C[C@@H](OC(=O)CI)[C@]7(C)[C@H](C)CC[C@]8(C[C@H](O)C(=O)[C@]87O)[C@H]6C)CC5C4=O)nn3)n1[B-]2(F)F (some centres not stated)
- pIC50 [1]: 5.82
- pIC50 [2]: 4.80

Compound: CC(=O)OCC(=O)O[C@@H]1C[C@@H](C2=CCn3c(=O)n(-c4ccccc4)c(=O)n3C2)[C@H](C)[C@@]23CC[C@@H](C)[C@]1(C)[C@]2(O)C(=O)[C@@H](O)C3
- pIC50 [1]: < 4.00
- pIC50 [2]: < 4.00

Source: ChEMBL document CHEMBL5050851, “Compounds that induce ferroptic cell death” (2020)
